Experimental data published in patent US20130059314A1, “FRET-BASED METHOD FOR THE DETERMINATION OF PROTEIN PHOSPHATASE AND KINASE ACTIVITY” (priority 2010, published 2013).

What was measured:
[1] = tested on: PP1/2A; test: FRET-based phosphatase activity assay in PP1/2A buffer; type: biochemical; conditions: FIG. 9
Source text: FIG. 8 is a graph showing that in the PP1A/2A buffer, a linear range of phosphatase activity not attributable to calcineurin activity was detected.
(§1) Okadaic acid is a known inhibitor if PP1/2A.

[2] = tested on: Calcineurin; test: FRET-based calcineurin activity assay with okadaic acid; type: biochemical; conditions: similar range of okadaic acid; FIG. 9
Experimental: as §1
2. Calcineurin activity was assessed by mixing equal parts lysate, RII or other peptide sample), and reacted for 5-10 mins at 30° C. Control reactions were included that contained known varying amounts of purified calcineurin to calculate a standard curve for each plate.
3. To stop the reaction, a solution of 10% acetyl nitrile and 0.01% acetic acid solution was added. This step was essential to reduce the pH of the reaction to below 3.5 and enable the binding of the titanium oxide beads to the target peptide.
4. FLUOR-titanium oxide beads were added with gentle shaking for 5 mins. Phosphorylated-peptides were retained on the beads producing a “shifted” TAMRA signal while non-phosphorylated peptides were unbound.
5. Reactions were neutralized with 0.35% ammonium hydroxide to return the pH to greater than 7 and the fluorescence of each sample will be read at 450 nm excitation/580 nm emission.
6. Calcineurin activity was then determined by calculating the slope and y-intercept of the standard curve and then extrapolating calcineurin activity from the fluorescence intensity.

C=C1[C@@H](O)[C@@H]2O[C@]3(CC[C@H](/C=C/[C@@H](C)[C@@H]4CC(C)=C[C@@]5(O[C@H](C[C@@](C)(O)C(=O)O)CC[C@H]5O)O4)O3)CC[C@H]2O[C@@H]1[C@@H](O)C[C@H](C)[C@H]1O[C@@]2(CCCCO2)CC[C@H]1C [okadaic acid]
phosphatase activity detected in the PP1/2A buffer, inhibition [1]: sensitive to inhibition with okadaic acid, in a dose-dependent fashion | calcineurin activity, sensitivity to okadaic acid [2]: not sensitive to further reduction
